Read-outs that look alike come from different tables or passages of the source.
Key:
hGCGR = target: T1, hGCGR (Homo sapiens, UniProt P47871); assay: Functional cAMP formation (HTRF) in HEK-293 clonal cells expressing hGCGR, 0.1% bovine casein, without or with 1.0% human serum albumin; type: cell-based; conditions: geometric mean, read-out: hGCGR EC50, nM (SEM, n)
T1 construct: expressed in transfected cells
Method in brief: (§1)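 Cells were stimulated with peptide for 30 min at 37° C, then intracellular cAMP was measured by competitive HTRF (665/620 nm ratio) and converted to nM using a cAMP standard curve. Relative EC50 and Emax came from four-parameter logistic fits of percent maximal response against peptide concentration.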

hGIPR = target: T2, hGIPR (Homo sapiens, UniProt P48546); assay: Functional cAMP formation (HTRF) in HEK-293 clonal cells expressing hGIPR, 0.1% bovine casein, without or with 1.0% human serum albumin; type: cell-based; conditions: for EC50: geometric mean, read-out: hGIPR EC50, nM (SEM, n); for Emax: read-out: hGIPR Emax, % ± SEM
T2 construct: expressed in transfected cells
T2 sequence (P48546 22-466): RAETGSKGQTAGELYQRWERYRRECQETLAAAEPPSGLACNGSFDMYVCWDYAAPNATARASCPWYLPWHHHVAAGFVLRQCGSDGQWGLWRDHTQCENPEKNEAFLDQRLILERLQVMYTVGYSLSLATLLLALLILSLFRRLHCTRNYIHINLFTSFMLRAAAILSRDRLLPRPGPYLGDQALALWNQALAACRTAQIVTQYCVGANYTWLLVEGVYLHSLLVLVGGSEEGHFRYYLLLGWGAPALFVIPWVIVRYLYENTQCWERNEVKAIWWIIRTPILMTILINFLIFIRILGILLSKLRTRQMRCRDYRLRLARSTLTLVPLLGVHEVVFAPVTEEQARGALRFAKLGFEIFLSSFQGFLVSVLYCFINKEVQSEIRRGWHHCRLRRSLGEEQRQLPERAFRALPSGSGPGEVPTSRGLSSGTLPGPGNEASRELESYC
Method in brief: as §1

[1] = target: T3, human GIP receptor (hGIPR) (Homo sapiens, UniProt P48546); assay: [125I]-GIP binding, SPA with membranes of CHO cells expressing hGIPR; conditions: human GIPR; geometric mean (SEM, n); read-out: Binding Affinity Ki, nM (SEM, n) hGIPR
T3 construct: expressed in transfected cells; crude membranes
T3 sequence (P48546 22-466): T2 sequence (P48546 22-466)
Protocol: Two methods are used for the preparation of crude cell membranes.
Method 1: Frozen cell pellets are lysed on ice in hypotonic buffer containing 50 mM Tris HCl, pH 7.5, and Roche Complete™ Protease Inhibitors with EDTA. […] The homogenate is centrifuged at 4° C. at 1100 × g for 10 minutes. The supernatant is collected and stored on ice while the pellets are resuspended in homogenization buffer and rehomogenized as described above. The homogenate is centrifuged at 1100 × g for 10 minutes. The second supernatant is combined with the first supernatant and centrifuged at 35000 × g for 1 hour at 4° C. The resulting membrane pellet is resuspended in homogenization buffer containing protease inhibitors at approximately 1 to 3 mg/mL, quick frozen in liquid nitrogen and stored as aliquots in a -80° C. freezer until use.
The homogenate is centrifuged at 4° C. at 1800 × g for 15 minutes. The supernatant is collected and stored on ice while the pellets are resuspended in homogenization buffer (without DNAse I) and rehomogenized as described above. The homogenate is centrifuged at 1800 × g for 15 minutes. The second supernatant is combined with the first supernatant and centrifuged an additional time at 1800 × g for 15 minutes. The overall supernatant is then centrifuged at 25000 × g for 30 minutes at 4° C. The resulting membrane pellet is resuspended in homogenization buffer (without DNAse I) containing protease inhibitors at approximately 1 to 3 mg/mL and stored as aliquots in a -80° C. freezer until use.
The binding buffer contains 25 mM HEPES, pH 7.4, 2.5 mM CaCl2, 1 mM MgCl2, 0.1% (w/v) bacitracin, 0.003% (w/v) TWEEN®-20, and Roche Complete™ Protease Inhibitors without EDTA. Peptides and GIP are thawed and 3 fold serially diluted in 100% DMSO (10 point concentration response curves). […] Plates are sealed and mixed on a plate shaker (setting 6) for 1 minute and read with a PerkinElmer Trilux MicroBeta® scintillation counter after 2.5 to 12 hours of incubation/settling time at room temperature.
Raw CPM data for concentration curves of peptides, Gcg, GLP-1, or GIP are converted to percent inhibition by subtracting nonspecific binding (binding in the presence of excess unlabeled Gcg, GLP-1, or GIP, respectively) from the individual CPM values and dividing by the total binding signal, also corrected by subtracting nonspecific binding. Data are analyzed using four-parameter (curve maximum, curve minimum, IC50, Hill slope) nonlinear regression routines (Genedata Screener, version 12.0.4, Genedata AG, Basal, Switzerland). […] Values for Ki are reported as the geometric mean, with error expressed as the standard error of the mean (SEM) and n is equal to the number of independent replicates (determined in assays performed on different days). Geometric Means are calculated as follows: […]
The Ki Ratio (Ki for native control peptide/Ki for test compound) at each receptor and each species is calculated. The Ki Ratio is a rapid indication of the apparent affinity of a peptide compared to the native control peptide.
n=⅟x means that only one value out of the total number of replicates (x) is used to express the mean. SEM is only calculated when n=2 or greater non-qualified results exist. Means are expressed as GeoMetric means with the standard error of the mean (SEM) and the number of replicates (n) indicated in parenthesis.

hGLP-1R = hGLP-1R (Homo sapiens, UniProt P43220); assay: Functional cAMP formation (HTRF) in HEK-293 clonal cells expressing hGLP-1R, 0.1% bovine casein, without or with 1.0% human serum albumin; type: cell-based; parameters: expressed in transfected cells; conditions: 0.1% bovine casein and 1.0% human serum albumin, 37° C.; geometric mean; read-out: hGLP-1R EC50, nM (SEM, n)
Method in brief: as §1

[2] = 0.1% bovine casein and 1.0% human serum albumin, 37° C.
[3] = cAMP, incubated at 37° C., 0.1% bovine casein (no human serum albumin)
[4] = HEK293, 0.1% bovine casein and 1.0% human serum albumin, 37° C., percent of maximal response to GIP(1-42)NH2

Chain of hGLP-1R (P43220 24-463): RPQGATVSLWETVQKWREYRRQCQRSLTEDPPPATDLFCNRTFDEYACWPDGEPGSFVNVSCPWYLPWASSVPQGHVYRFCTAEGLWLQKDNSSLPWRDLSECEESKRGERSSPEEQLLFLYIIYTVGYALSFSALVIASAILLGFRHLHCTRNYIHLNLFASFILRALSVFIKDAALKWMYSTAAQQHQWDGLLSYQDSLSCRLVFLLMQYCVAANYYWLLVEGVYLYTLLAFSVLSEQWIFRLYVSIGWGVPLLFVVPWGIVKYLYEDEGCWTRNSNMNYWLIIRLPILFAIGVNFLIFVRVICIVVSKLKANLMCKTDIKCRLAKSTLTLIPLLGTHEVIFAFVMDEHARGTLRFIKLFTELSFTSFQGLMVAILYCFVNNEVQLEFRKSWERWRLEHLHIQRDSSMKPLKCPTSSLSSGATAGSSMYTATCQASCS
T1 sequence (P47871 26-477): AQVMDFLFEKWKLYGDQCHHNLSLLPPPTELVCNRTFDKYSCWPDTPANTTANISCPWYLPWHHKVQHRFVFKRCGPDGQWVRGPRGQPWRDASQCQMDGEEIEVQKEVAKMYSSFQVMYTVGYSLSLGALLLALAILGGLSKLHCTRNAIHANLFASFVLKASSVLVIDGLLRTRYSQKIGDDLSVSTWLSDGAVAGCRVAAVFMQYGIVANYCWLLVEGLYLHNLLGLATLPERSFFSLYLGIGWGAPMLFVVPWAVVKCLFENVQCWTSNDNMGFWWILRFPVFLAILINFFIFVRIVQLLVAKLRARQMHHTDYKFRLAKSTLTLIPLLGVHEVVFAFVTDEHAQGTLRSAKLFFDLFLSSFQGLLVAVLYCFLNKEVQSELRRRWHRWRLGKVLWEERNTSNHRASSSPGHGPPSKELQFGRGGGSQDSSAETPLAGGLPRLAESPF

Structure (SMILES): CCCCCCCCCCCCCC(=O)N[C@@H](CCC(=O)NCCOCCOCC(=O)NCCOCCOCC(=O)NCCCC[C@H](NC(=O)CNC(=O)CNC(=O)[C@H](CCC(=O)O)NC(=O)[C@@H](NC(=O)[C@H](CC(C)C)NC(=O)[C@](C)(Cc1ccc(O)cc1)NC(=O)[C@@H](CCC(=O)O)NC(=O)[C@@H](NC(=O)[C@H](Cc1ccccc1)NC(=O)[C@H](CCC(=O)O)NC(=O)C(C)(C)NC(=O)[C@H](CCC(N)=O)NC(=O)[C@H](C)NC(=O)[C@H](CCCCNC(=O)COCCOCCNC(=O)COCCOCCNC(=O)CC[C@H](NC(=O)CCCCCCCCCCCCC)C(=O)O)NC(=O)[C@H](CCCN)NC(=O)[C@H](CC(=O)O)NC(=O)[C@H](CC(C)C)NC(=O)[C@](C)(CC(C)C)NC(=O)[C@@H](NC(=O)[C@H](CO)NC(=O)[C@H](Cc1ccncc1)NC(=O)[C@H](CC(=O)O)NC(=O)[C@H](CO)NC(=O)[C@@H](NC(=O)[C@](C)(Cc1ccccc1F)NC(=O)[C@@H](NC(=O)CNC(=O)[C@H](CCC(=O)O)NC(=O)C(C)(C)NC(=O)[C@@H](N)Cc1ccc(O)cc1)[C@@H](C)O)[C@@H](C)O)[C@@H](C)CC)[C@@H](C)CC)[C@@H](C)CC)C(=O)N[C@@H](CO)C(=O)N[C@@H](CO)C(=O)NCC(=O)N[C@@H](C)C(=O)N1CCC[C@H]1C(=O)N1CCC[C@H]1C(=O)N1CCC[C@H]1C(=O)N[C@@H](CO)C(N)=O)C(=O)O [Example 8]
- EC50 (hGCGR; [2]): > 9950 nM
- EC50 (hGCGR; [3]): > 9950 nM
- EC50 (hGIPR; [2]): 0.635 nM
- Emax (hGIPR; [4]): 91.3 ± 3.11%
- Ki [1]: 0.024 nM
- EC50 (hGLP-1R): 8 nM

Structure (SMILES): CCCCCCCCCCCCCCCC(=O)N[C@@H](CCC(=O)NCCOCCOCC(=O)NCCOCCOCC(=O)NCCCC[C@H](NC(=O)[C@H](CO)NC(=O)[C@@H]1CCCN1C(=O)[C@@H]1CCCN1C(=O)[C@@H]1CCCN1C(=O)[C@H](C)NC(=O)CNC(=O)[C@H](CO)NC(=O)[C@H](CO)NC(=O)[C@@H]1CCCN1C(=O)CNC(=O)CNC(=O)[C@H](CCC(=O)O)NC(=O)[C@@H](NC(=O)[C@H](CC(C)C)NC(=O)[C@](C)(Cc1ccc(O)cc1)NC(=O)[C@@H](CCC(=O)O)NC(=O)[C@@H](NC(=O)[C@H](Cc1ccccc1)NC(=O)[C@H](CCC(=O)O)NC(=O)C(C)(C)NC(=O)[C@H](CCC(N)=O)NC(=O)[C@H](C)NC(=O)[C@H](CCCCNC(=O)COCCOCCNC(=O)COCCOCCNC(=O)CC[C@H](NC(=O)CCCCCCCCCCCCCCC)C(=O)O)NC(=O)[C@H](CCCN)NC(=O)[C@H](CC(=O)O)NC(=O)[C@H](CC(C)C)NC(=O)[C@](C)(CC(C)C)NC(=O)[C@@H](NC(=O)[C@H](CO)NC(=O)[C@H](Cc1ccncc1)NC(=O)[C@H](CC(=O)O)NC(=O)[C@H](CO)NC(=O)[C@@H](NC(=O)[C@](C)(Cc1ccccc1F)NC(=O)[C@@H](NC(=O)CNC(=O)[C@H](CCC(=O)O)NC(=O)C(C)(C)NC(=O)[C@@H](N)Cc1ccc(O)cc1)[C@@H](C)O)[C@@H](C)O)[C@@H](C)CC)[C@@H](C)CC)[C@@H](C)CC)C(N)=O)C(=O)O [Example 25]
- EC50 (hGCGR; [2]): > 9950 nM
- EC50 (hGCGR; [3]): > 9950 nM
- EC50 (hGIPR; [2]): 0.274 nM
- Emax (hGIPR; [4]): 94.3 ± 1.73%
- Ki [1]: 0.0293 nM
- EC50 (hGLP-1R): 1.11 nM

Structure (SMILES): CCCCCCCCCCCCCCCC(=O)N[C@@H](CCC(=O)NCCOCCOCC(=O)NCCOCCOCC(=O)NCCCC[C@H](NC(=O)CNC(=O)CNC(=O)[C@H](CCCCNC(=O)COCCOCCNC(=O)COCCOCCNC(=O)CC[C@H](NC(=O)CCCCCCCCCCCCCCC)C(=O)O)NC(=O)[C@@H](NC(=O)[C@H](CC(C)C)NC(=O)[C@](C)(Cc1ccc(O)cc1)NC(=O)[C@@H](CCC(=O)O)NC(=O)[C@@H](NC(=O)[C@H](Cc1ccccc1)NC(=O)[C@H](CCC(=O)O)NC(=O)C(C)(C)NC(=O)[C@H](CCC(N)=O)NC(=O)[C@H](C)NC(=O)[C@@H](NC(=O)[C@H](CCCN)NC(=O)[C@H](CC(=O)O)NC(=O)[C@H](CC(C)C)NC(=O)[C@](C)(CC(C)C)NC(=O)[C@@H](NC(=O)[C@H](CO)NC(=O)[C@H](Cc1ccncc1)NC(=O)[C@H](CC(=O)O)NC(=O)[C@H](CO)NC(=O)[C@@H](NC(=O)[C@](C)(Cc1ccccc1F)NC(=O)[C@@H](NC(=O)CNC(=O)[C@H](CCC(=O)O)NC(=O)C(C)(C)NC(=O)[C@@H](N)Cc1ccc(O)cc1)[C@@H](C)O)[C@@H](C)O)[C@@H](C)CC)[C@@H](C)CC)[C@@H](C)CC)[C@@H](C)CC)C(=O)N[C@@H](CO)C(=O)N[C@@H](CO)C(=O)NCC(=O)N[C@@H](C)C(=O)N1CCC[C@H]1C(=O)N1CCC[C@H]1C(=O)N1CCC[C@H]1C(=O)N[C@@H](CO)C(N)=O)C(=O)O [Example 26]
- EC50 (hGCGR; [2]): > 9950 nM
- EC50 (hGCGR; [3]): > 9950 nM
- EC50 (hGIPR; [2]): 1.2 nM
- Emax (hGIPR; [4]): 95.4 ± 2.54%
- EC50 (hGIPR; [3]): 0.0218 nM
- Ki [1]: 0.0863 nM
- EC50 (hGLP-1R): 3.93 nM

Structure (SMILES): CC[C@H](C)[C@H](NC(=O)[C@H](CC(C)C)NC(=O)[C@](C)(Cc1ccc(O)cc1)NC(=O)[C@@H](CCC(=O)O)NC(=O)[C@@H](NC(=O)[C@H](Cc1ccccc1)NC(=O)[C@H](CCC(=O)O)NC(=O)C(C)(C)NC(=O)[C@H](CCC(N)=O)NC(=O)[C@H](C)NC(=O)[C@H](CCCCNC(=O)[C@@H](N)CCCCNC(=O)COCCOCCNC(=O)CC[C@H](NC(=O)CCCCCCCCCCCCC(=O)O)C(=O)O)NC(=O)[C@H](CCCN)NC(=O)[C@H](CC(=O)O)NC(=O)[C@H](CC(C)C)NC(=O)[C@](C)(CC(C)C)NC(=O)[C@@H](NC(=O)[C@H](CO)NC(=O)[C@H](Cc1ccncc1)NC(=O)[C@H](CC(=O)O)NC(=O)[C@H](CO)NC(=O)[C@@H](NC(=O)[C@](C)(Cc1ccccc1F)NC(=O)[C@@H](NC(=O)CNC(=O)[C@H](CCC(=O)O)NC(=O)C(C)(C)NC(=O)[C@@H](N)Cc1ccc(O)cc1)[C@@H](C)O)[C@@H](C)O)[C@@H](C)CC)[C@@H](C)CC)C(=O)N[C@@H](CCC(=O)O)C(=O)NCC(=O)NCC(=O)N[C@@H](CCCCNC(=O)[C@@H](N)CCCCNC(=O)COCCOCCNC(=O)CC[C@H](NC(=O)CCCCCCCCCCCCC(=O)O)C(=O)O)C(=O)N[C@@H](CO)C(=O)N[C@@H](CO)C(=O)NCC(=O)N[C@@H](C)C(=O)N1CCC[C@H]1C(=O)N1CCC[C@H]1C(=O)N1CCC[C@H]1C(=O)N[C@@H](CO)C(N)=O [Example 36]
- EC50 (hGCGR; [2]): > 9950 nM
- EC50 (hGCGR; [3]): > 9950 nM
- EC50 (hGIPR; [2]): 0.408 nM
- Emax (hGIPR; [4]): 91.4 ± 0.667%
- Emax (hGIPR; HEK293, percent of maximal response to GIP(1-42)NH2, 37° C., 0.1% bovine casein, arithmetic mean): 95.4 ± 2.02%
- EC50 (hGIPR; [3]): 0.0185 nM
- Ki [1]: 0.103 nM
- EC50 (hGLP-1R): 10.9 nM
